For 31 molecules, TGI and GI50 results are on record in PubChem BioAssay (NCI).

Several values for one entry are separate records, joined by “and”; a condition that tells them apart may be missing. Equal entries are not always repeated.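 A five-concentration, 48-hour dose response in 96-well plates underlies each endpoint, interpolated linearly between surrounding concentrations. GI50 is the concentration that inhibits growth by half. TGI is the concentration that stops growth completely.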

Test systems include M19-MEL melanoma; KM20L2 colon; XF 498 CNS; DMS 273 small cell lung; DLD-1 colon; LXFL 529 NSCLC; MDA-N; HOP-18 NSCLC; RXF-631 renal.
Common to all, as to assay: NCI anticancer screen, dose series, 48 h

In the case of `Cc1cc(N(CCC#N)CCC#N)ccc1/C=C/C(=O)Nc1ccccc1Cl`, the TGI in the experiment on M19-MEL melanoma, with KM20L2 colon, in the experiment on XF 498 CNS, with DMS 273 small cell lung, with DLD-1 colon and in the experiment with LXFL 529 NSCLC was more than 100 µM each time.

Take `N=C(N)SCC(=O)O`: the TGI in the experiment on MDA-N is more than 100 µM.

For `O=C(O)C(CS)N=Cc1nc(-c2ccccc2)oc1O` (stereo not drawn), the TGI with M19-MEL melanoma, in the experiment with KM20L2 colon, in the experiment with DMS 273 small cell lung, with DLD-1 colon and in the experiment on LXFL 529 NSCLC was more than 100 µM each time.

Molecule `O=C(O)C(O)c1ccc(F)cc1` (stereo not drawn) returned a TGI in the experiment on MDA-N of more than 100 µM.

For `C1=CC=C2NCCSCCNC3=CC=CC=CC3=NCCSCCN=C2C=C1`, the TGI with M19-MEL melanoma, in the experiment with KM20L2 colon, with DMS 273 small cell lung, with HOP-18 NSCLC, in the experiment on DLD-1 colon and in the experiment on LXFL 529 NSCLC was more than 100 µM throughout.

As to `C(/C=C/N1CCCC1)=C\c1nc(N2CCCC2)c2ccccc2n1`, the TGI in the experiment on M19-MEL melanoma came to 32.2 µM; in the experiment with KM20L2 colon, 51.7 µM; in the experiment with DMS 273 small cell lung, 34.2 µM; with HOP-18 NSCLC, 30.3 µM; in the experiment on DLD-1 colon, 37.1 µM; in the experiment on RXF-631 renal it was 41.3 µM. The molecule also showed a TGI in the experiment on LXFL 529 NSCLC of 28 µM.

For `O=C(NOC(=O)c1ccc([N+](=O)[O-])cc1)c1ccc(Cl)cc1`, the TGI with M19-MEL melanoma was more than 100 µM; in the experiment with KM20L2 colon it was more than 100 µM; in the experiment with XF 498 CNS, more than 100 µM; in the experiment with HOP-18 NSCLC it was 89.7 µM; with DLD-1 colon, more than 100 µM; with RXF-631 renal, more than 100 µM. In addition, the TGI in the experiment with LXFL 529 NSCLC was more than 100 µM.

In the case of `C=C1c2ccccc2N(S(=O)(=O)c2ccc(C)cc2)C12CCCCC2`, the TGI in the experiment with M19-MEL melanoma, in the experiment with KM20L2 colon, in the experiment on XF 498 CNS, in the experiment with DMS 273 small cell lung, with HOP-18 NSCLC and in the experiment on DLD-1 colon was more than 100 µM throughout. The same molecule had a TGI in the experiment with LXFL 529 NSCLC of more than 100 µM.

For `O=C1OC(c2ccc(Cl)c3ccccc23)c2ccccc21` (stereo not drawn), the TGI in the experiment with M19-MEL melanoma, with KM20L2 colon, in the experiment with XF 498 CNS, in the experiment with HOP-18 NSCLC and with RXF-631 renal was more than 100 µM in each case.

Consider `O=C1[C@H]2ON(c3ccccc3)C(c3cccc([N+](=O)[O-])c3)[C@H]2C(=O)N1c1ccc(Cc2ccc(N3C(=O)[C@@H]4ON(c5ccccc5)C(c5cccc([N+](=O)[O-])c5)[C@@H]4C3=O)cc2)cc1` (stereo partly drawn), for which the TGI in the experiment with M19-MEL melanoma, in the experiment on KM20L2 colon, in the experiment on DMS 273 small cell lung, with HOP-18 NSCLC, with DLD-1 colon and in the experiment with LXFL 529 NSCLC was more than 100 µM each time.

Turning to `COc1cc(/C=C2/C(=O)N(C(=O)c3ccccc3O)N=C2C)ccc1O`, the TGI is more than 100 µM in the experiment with M19-MEL melanoma; more than 100 µM in the experiment with KM20L2 colon; 79.6 µM in the experiment on XF 498 CNS; more than 100 µM in the experiment with MDA-N; more than 100 µM with DLD-1 colon; more than 100 µM in the experiment with LXFL 529 NSCLC.

Regarding `C=C(C[N+](C)(C)C)N/N=C/c1oc(-c2ccc(OC)c(OC)c2)c(-c2ccc(OC)c(OC)c2)c1[N+](=O)[O-]`, the TGI with M19-MEL melanoma is 29.3 µM; in the experiment with KM20L2 colon, more than 100 µM; in the experiment with XF 498 CNS, 56.6 µM; in the experiment on HOP-18 NSCLC, 60.4 µM; in the experiment with DLD-1 colon, 46.9 µM; with LXFL 529 NSCLC, 52.4 µM.

On to `CC12O[Te]34OC1(C)C(C)(O3)C2(C)O4`, for which the TGI was determined as 25.5 µM in the experiment with M19-MEL melanoma; 87.5 µM with KM20L2 colon; 37.7 µM in the experiment with DMS 273 small cell lung; 32 µM in the experiment with HOP-18 NSCLC; 30.4 µM in the experiment on DLD-1 colon; 26.7 µM in the experiment on LXFL 529 NSCLC.

For the molecule `CC(C)(C)c1cc(C(=O)O)c(C(c2ccccc2)c2ccccc2C(=O)O)c(C(=O)O)c1` (stereo not drawn), the TGI in the experiment on KM20L2 colon, in the experiment on XF 498 CNS, in the experiment with DMS 273 small cell lung, in the experiment on HOP-18 NSCLC, with DLD-1 colon and with LXFL 529 NSCLC was more than 100 µM throughout.

Regarding `C=CCN(N=O)C(=O)ON1C(=O)CCC1=O`, the TGI with M19-MEL melanoma, with KM20L2 colon, with DMS 273 small cell lung, in the experiment on HOP-18 NSCLC, in the experiment with DLD-1 colon and with RXF-631 renal was more than 100 µM each time. In the experiment on LXFL 529 NSCLC, the TGI is more than 100 µM.

In the case of `COc1cc2c(c(OC)c1OC)-c1ccc(SC)c(=O)cc1[C@@H](NC(=O)c1ccc(F)cc1)CC2`, the GI50 with M19-MEL melanoma, in the experiment with KM20L2 colon, in the experiment with DLD-1 colon and with LXFL 529 NSCLC was less than 0.01 µM in each case. Further, the TGI in the experiment on M19-MEL melanoma is more than 100 µM; with KM20L2 colon, 0.0427 µM and < 0.01 µM; in the experiment with XF 498 CNS, 0.0844 µM; with DMS 273 small cell lung, 44.7 µM; in the experiment on DLD-1 colon, more than 100 µM; in the experiment on LXFL 529 NSCLC, more than 100 µM.

Consider `BrC(Br)([P+](c1ccccc1)(c1ccccc1)c1ccccc1)[P+](c1ccccc1)(c1ccccc1)c1ccccc1`, for which the TGI in the experiment with M19-MEL melanoma is 38.4 µM; with KM20L2 colon, 86.2 µM; with DMS 273 small cell lung, 32.6 µM; in the experiment with HOP-18 NSCLC, more than 100 µM; in the experiment with DLD-1 colon, 40.6 µM; with LXFL 529 NSCLC, 34.5 µM.

On to `CCCC(=O)Nc1cn(COC)c(C(=O)N2C[C@H]3C[C@@]34C2=CC(=O)c2[nH]cc(C)c24)n1`, for which, in the experiment with MDA-N, the GI50 was 7.62 µM; the TGI was 19.5 µM and 59.6 µM.

As to `COC(=O)C1=C(C(=O)OC)C(C(=O)OC)C(C(=O)OC)C(C(=O)OC)(C(=O)OC)C(C(=O)OC)=C1C(=O)OC` (stereo not drawn), the TGI came out at 25.6 µM in the experiment on M19-MEL melanoma; 35.9 µM in the experiment on KM20L2 colon; 25.3 µM in the experiment on XF 498 CNS; 31 µM with HOP-18 NSCLC; 31.2 µM in the experiment with MDA-N; 6.98 µM with DLD-1 colon. Also, the TGI with LXFL 529 NSCLC came out at 21.8 µM.

`O=C1Cc2ccccc2CCc2ccccc21`: the TGI with M19-MEL melanoma, with KM20L2 colon, in the experiment with DMS 273 small cell lung, in the experiment with HOP-18 NSCLC, with DLD-1 colon and in the experiment on LXFL 529 NSCLC was more than 100 µM in each case.

Consider `CCOc1ccccc1NC(=O)CCC(=O)NN`, for which the TGI in the experiment with KM20L2 colon, in the experiment on XF 498 CNS, with DMS 273 small cell lung, in the experiment on DLD-1 colon, with RXF-631 renal and in the experiment on LXFL 529 NSCLC was more than 100 µM in each case.

`Cc1cc(C)c2nccc(NCCCN(C)C)c2c1[N+](=O)[O-]` registered a TGI in the experiment with MDA-N of more than 100 µM.

With `OCCN(CCO)c1ncnc2c1sc(=S)n2-c1ccccc1`, the TGI in the experiment with M19-MEL melanoma, with KM20L2 colon, with XF 498 CNS, in the experiment on DMS 273 small cell lung, in the experiment on HOP-18 NSCLC and in the experiment with DLD-1 colon was more than 100 µM each time. This molecule also yielded a TGI in the experiment with LXFL 529 NSCLC of more than 100 µM.

As to `CCCCOP1(=O)C=CC(Cl)=C(C)C1` (stereo not drawn), the TGI was more than 100 µM in the experiment with M19-MEL melanoma; 49.5 µM with KM20L2 colon; 43.2 µM in the experiment with XF 498 CNS; more than 100 µM in the experiment on HOP-18 NSCLC; more than 100 µM in the experiment with RXF-631 renal; 94.4 µM with LXFL 529 NSCLC.

On to `CN1C(=O)CC2(C)c3cc(C=O)ccc3N(C)C12` (stereo not drawn), for which the TGI in the experiment with M19-MEL melanoma, with KM20L2 colon, in the experiment with XF 498 CNS, in the experiment with HOP-18 NSCLC, with DLD-1 colon and with RXF-631 renal was more than 100 µM throughout. In the experiment on LXFL 529 NSCLC, this molecule displayed a TGI of more than 100 µM.

In the experiment with MDA-N, `O=C(/C(=N/Nc1cn[nH]c(=O)c1Cl)c1ccccc1)c1ccccc1` gave a TGI of 32.8 µM.

With `Cc1nnc(N=Nc2c(O)[nH]c3ccccc23)[nH]c1=O`, in the experiment with MDA-N, the TGI was more than 100 µM.

As to `CCC1(Cl)C(=O)NC(=O)N(C2CC(O)C(CO)O2)C1N=[N+]=[N-]` (stereo not drawn), the TGI with M19-MEL melanoma, in the experiment with KM20L2 colon, in the experiment on XF 498 CNS, in the experiment on DMS 273 small cell lung, in the experiment with DLD-1 colon and in the experiment on RXF-631 renal was more than 100 µM throughout. This molecule also registered a TGI in the experiment with LXFL 529 NSCLC of more than 100 µM.

Consider `CC(=O)[O-].O=[N+]([O-])c1ccc([O-])c(C=NCCN=Cc2cc([N+](=O)[O-])ccc2[O-])c1.[Mn+3]`, for which the GI50 in the experiment on M19-MEL melanoma, in the experiment with DMS 273 small cell lung, in the experiment on HOP-18 NSCLC, in the experiment on DLD-1 colon and in the experiment with LXFL 529 NSCLC was more than 100 µM throughout. Besides, the TGI in the experiment on M19-MEL melanoma, in the experiment on DMS 273 small cell lung, in the experiment on HOP-18 NSCLC, in the experiment with DLD-1 colon and with LXFL 529 NSCLC was more than 100 µM each time.

Take `CC1(C)Oc2ccccc2N2O[C@@H]3C(=O)N(c4ccccc4)C(=O)[C@@H]3C21c1ccccc1` (stereo partly drawn): the TGI with M19-MEL melanoma is 72.5 µM; in the experiment with KM20L2 colon, more than 100 µM; with HOP-18 NSCLC it was 49.1 µM; in the experiment on DLD-1 colon it was 65.7 µM; in the experiment on LXFL 529 NSCLC, more than 100 µM.

Take `COc1cc(-c2nn3c(=O)n(-c4ccc(Cl)cc4)c(=O)nc3s2)cc(OC)c1OC`: the GI50 in the experiment on M19-MEL melanoma, in the experiment with KM20L2 colon and in the experiment with DLD-1 colon was more than 50 µM in each case. Moreover, the TGI in the experiment on M19-MEL melanoma is more than 100 µM; in the experiment on KM20L2 colon, more than 100 µM; in the experiment with DMS 273 small cell lung it was more than 100 µM; in the experiment with HOP-18 NSCLC it was more than 100 µM; with DLD-1 colon, more than 100 µM; in the experiment with RXF-631 renal it was 50 µM and > 100 µM.
